Laboratory results as given in ChEMBL document CHEMBL3885881, “DrugMatrix”.

Experiments:
Rattus norvegicus [1] = species on record: Rattus norvegicus; assay type: toxicity, organism-based, Sprague-Dawley; details: in vivo, po, 2 mg/kg, 24 h, route oral GAVAGE, dose level High, time 1 day, vehicle 100 % WATER
Description: DrugMatrix - Regimen: Single

Rattus norvegicus [2] = species on record: Rattus norvegicus; assay: DrugMatrix - Regimen: Daily Repeat; assay type: toxicity, organism-based, Sprague-Dawley; set-up: regimen Daily Repeat, gender Male, age 6-8 weeks; details: in vivo, po, 2 mg/kg, 72 h, route oral GAVAGE, dose level High, time 3 day, vehicle 100 % WATER

SMILES: O=[Se]([O-])[O-].[Na+].[Na+] [SODIUM SELENITE]
- ABSOLUTE EOSINOPHIL (Rattus norvegicus [1]; tissue Blood): 75.33 CELLS/uL
- ABSOLUTE LYMPHOCYTE (Rattus norvegicus [1]; tissue Blood): 14511 CELLS/uL
- ABSOLUTE MONOCYTE (Rattus norvegicus [1]; tissue Blood): 680 CELLS/uL
- ABSOLUTE SEGMENTED NEUTROPHIL (Rattus norvegicus [1]; tissue Blood): 1733.67 CELLS/uL
- BASOPHIL (Rattus norvegicus [1]; tissue Blood): 0%
- EOSINOPHIL (Rattus norvegicus [1]; tissue Blood): 0.67%
- ERYTHROCYTE COUNT (Rattus norvegicus [1]; tissue Blood): 5.44 x10E6/uL
- HEMATOCRIT (Rattus norvegicus [1]; tissue Blood): 34.57%
- HEMOGLOBIN (Rattus norvegicus [1]; tissue Blood): 12.77 G/DL
- LEUKOCYTE COUNT (Rattus norvegicus [1]; tissue Blood): 17 x10E3/uL
- LYMPHOCYTE (Rattus norvegicus [1]; tissue Blood): 85%
- MEAN CORPUSCULAR HEMOGLOBIN (Rattus norvegicus [1]; tissue Blood): 23.53 pg
- MEAN CORPUSCULAR HEMOGLOBIN CONCENTRATION (Rattus norvegicus [1]; tissue Blood): 36.97 G/DL
- MEAN CORPUSCULAR VOLUME (Rattus norvegicus [1]; tissue Blood): 63.6 fL
- MONOCYTE (Rattus norvegicus [1]; tissue Blood): 4%
- NEUTROPHIL (Rattus norvegicus [1]; tissue Blood): 10.33%
- NUCLEATED RED BLOOD CELLS (Rattus norvegicus [1]; tissue Blood): 0 /100WBC
- PLATELET COUNT (Rattus norvegicus [1]; tissue Blood): 978.67 x10E3/uL
- ALANINE AMINOTRANSFERASE (Rattus norvegicus [1]; tissue Plasma): 57.67 u/L
- ALBUMIN (Rattus norvegicus [1]; tissue Plasma): 4.3 G/DL
- ALKALINE PHOSPHATASE (Rattus norvegicus [1]; tissue Plasma): 357.67 u/L
- ASPARTATE AMINOTRANSFERASE (Rattus norvegicus [1]; tissue Plasma): 80.67 u/L
- BLOOD UREA NITROGEN (Rattus norvegicus [1]; tissue Plasma): 12.33 mg/dL
- CARBON DIOXIDE (Rattus norvegicus [1]; tissue Plasma): 27.67 mmol/L
- CHLORIDE (Rattus norvegicus [1]; tissue Plasma): 103 MEQ/L
- CHOLESTEROL (Rattus norvegicus [1]; tissue Plasma): 82.67 mg/dL
- CREATININE (Rattus norvegicus [1]; tissue Plasma): 0.15 mg/dL
- GLUCOSE (Rattus norvegicus [1]; tissue Plasma): 177 mg/dL
- LACTATE DEHYDROGENASE (Rattus norvegicus [1]; tissue Plasma): 119 u/L
- LIPASE (Rattus norvegicus [1]; tissue Plasma): 7.67 u/L
- PHOSPHORUS (Rattus norvegicus [1]; tissue Plasma): 13.23 mg/dL
- POTASSIUM (Rattus norvegicus [1]; tissue Plasma): 6.75 MEQ/L
- SODIUM (Rattus norvegicus [1]; tissue Plasma): 146.8 MEQ/L
- TOTAL BILIRUBIN (Rattus norvegicus [1]; tissue Plasma): 0.2 mg/dL
- TOTAL PROTEIN (Rattus norvegicus [1]; tissue Plasma): 5.73 G/DL
- URIC ACID (Rattus norvegicus [1]; tissue Plasma): 2.07 mg/dL
- ABSOLUTE BASOPHIL (Rattus norvegicus [2]; tissue Blood): 0 CELLS/uL
- ABSOLUTE EOSINOPHIL (Rattus norvegicus [2]; tissue Blood): 0 CELLS/uL
- ABSOLUTE LYMPHOCYTE (Rattus norvegicus [2]; tissue Blood): 12300.67 CELLS/uL
- ABSOLUTE MONOCYTE (Rattus norvegicus [2]; tissue Blood): 763.67 CELLS/uL
- ABSOLUTE SEGMENTED NEUTROPHIL (Rattus norvegicus [2]; tissue Blood): 2435.67 CELLS/uL
- BASOPHIL (Rattus norvegicus [2]; tissue Blood): 0%
- EOSINOPHIL (Rattus norvegicus [2]; tissue Blood): 0%
- ERYTHROCYTE COUNT (Rattus norvegicus [2]; tissue Blood): 6.2 x10E6/uL
- HEMATOCRIT (Rattus norvegicus [2]; tissue Blood): 38.47%
- HEMOGLOBIN (Rattus norvegicus [2]; tissue Blood): 14.1 G/DL
- LEUKOCYTE COUNT (Rattus norvegicus [2]; tissue Blood): 15.5 x10E3/uL
- LYMPHOCYTE (Rattus norvegicus [2]; tissue Blood): 80%
- MEAN CORPUSCULAR HEMOGLOBIN (Rattus norvegicus [2]; tissue Blood): 22.77 pg
- MEAN CORPUSCULAR HEMOGLOBIN CONCENTRATION (Rattus norvegicus [2]; tissue Blood): 36.7 G/DL
- MEAN CORPUSCULAR VOLUME (Rattus norvegicus [2]; tissue Blood): 62.07 fL
- MONOCYTE (Rattus norvegicus [2]; tissue Blood): 5%
- NEUTROPHIL (Rattus norvegicus [2]; tissue Blood): 15%
- NUCLEATED RED BLOOD CELLS (Rattus norvegicus [2]; tissue Blood): 0 /100WBC
- PLATELET COUNT (Rattus norvegicus [2]; tissue Blood): 701.33 x10E3/uL
- ALANINE AMINOTRANSFERASE (Rattus norvegicus [2]; tissue Plasma): 84.33 u/L
- ALBUMIN (Rattus norvegicus [2]; tissue Plasma): 4.57 G/DL
- ALKALINE PHOSPHATASE (Rattus norvegicus [2]; tissue Plasma): 506.33 u/L
- ASPARTATE AMINOTRANSFERASE (Rattus norvegicus [2]; tissue Plasma): 143.67 u/L
- BLOOD UREA NITROGEN (Rattus norvegicus [2]; tissue Plasma): 15.67 mg/dL
- CARBON DIOXIDE (Rattus norvegicus [2]; tissue Plasma): 24 mmol/L
- CHLORIDE (Rattus norvegicus [2]; tissue Plasma): 102.33 MEQ/L
- CHOLESTEROL (Rattus norvegicus [2]; tissue Plasma): 121.33 mg/dL
- CREATININE (Rattus norvegicus [2]; tissue Plasma): 0.18 mg/dL
- GLUCOSE (Rattus norvegicus [2]; tissue Plasma): 145.67 mg/dL
- LACTATE DEHYDROGENASE (Rattus norvegicus [2]; tissue Plasma): 321.67 u/L
- LIPASE (Rattus norvegicus [2]; tissue Plasma): 9 u/L
- PHOSPHORUS (Rattus norvegicus [2]; tissue Plasma): 12.8 mg/dL
- POTASSIUM (Rattus norvegicus [2]; tissue Plasma): 5.73 MEQ/L
- SODIUM (Rattus norvegicus [2]; tissue Plasma): 146 MEQ/L
- TOTAL BILIRUBIN (Rattus norvegicus [2]; tissue Plasma): 0.23 mg/dL
- TOTAL PROTEIN (Rattus norvegicus [2]; tissue Plasma): 6.53 G/DL
- URIC ACID (Rattus norvegicus [2]; tissue Plasma): 1.43 mg/dL
